Measurements published in patent US20030013660A1, “Dioxolane analogs for improved inter-cellular delivery” (Shire BioChem Inc., priority 2000, published 2003).
pIC50: −log10 of the molar value. Values joined by “and” are separate entries in the source; they are usually repeats but may differ in a detail not shown here. Identical values can stand only once.

Tests used:
CCRF-CEM [1] = assay: 3H-TdR (3H-thymidine) incorporation assay at 72 hr; format: cell-based; settings: Homo sapiens, CCRF-CEM, read-out: IC50 CCRF-CEM 24 h, 24 h drug exposure, wash, another 48 hr; 3H-TdR incorporation at 72 hr
Protocol: (§1) Table of IC50 Values (μM) for Controls
(§2) Exposition of 24 hr to drug, wash, incubated for another 48 hr (total of 72 hr assay)
(§3) (3H-Thymidine Incorporation Assay)

CEM/dCK- [2] = assay: 3H-TdR (3H-thymidine) incorporation assay at 72 hr; format: cell-based
Protocol: as §1, §2, §3

CCRF-CEM [3] = assay: MTT or WST-1 assay at 72 hr (24 hr drug exposure, wash, 48 hr); format: cell-based
Protocol: (§4) Exposition of 24hr to drug, washed, and incubated for another 48hr (total of 72hr assay)

SF-268 [4] = assay: 3H-TdR (3H-thymidine) incorporation assay at 72 hr; format: cell-based, Human; settings: Homo sapiens, SF-268, read-out: IC50 SF-268 24 h, 24 h drug exposure, wash, another 48 hr; 3H-TdR incorporation at 72 hr
H-460 [5] = assay: 3H-TdR (3H-thymidine) incorporation assay at 72 hr; format: cell-based, Human; settings: Homo sapiens, NCI-H460, read-out: IC50 H-460 24 h, 24 h drug exposure, wash, another 48 hr; 3H-TdR incorporation at 72 hr
MCF-7 [6] = assay: 3H-TdR (3H-thymidine) incorporation assay at 72 hr; format: cell-based, Human; settings: Homo sapiens, MCF7, read-out: IC50 MCF-7 24 h, 24 h drug exposure, wash, another 48 hr; 3H-TdR incorporation at 72 hr
CEM/dCK- [7] = assay: MTT or WST-1 assay at 72 hr (24 hr drug exposure, wash, 48 hr); format: cell-based
Protocol: as §4

CEM/dCK- [8] = assay: 3H-TdR incorporation at 72 hr (24 hr drug exposure, wash, 48 hr); format: cell-based; settings: for IC50: Homo sapiens, CCRF-CEM, read-out: IC50 in μM (3H-TdR incorporation at 72 hr) CEM/dCK- 24 h, CCRF-CEM deoxycytidine kinase-deficient, 24 h drug exposure, 72 hr assay; for Factor* (Resistance Factor = Ratio of dCK- on Wild-type CCRF-CEM): ratio of IC50 CEM/dCK- to IC50 CCRF-CEM
Protocol: as §2, §3

MCF-7 [9] = assay: as above; format: cell-based, Human; settings: Homo sapiens, MCF7, read-out: IC50 in μM (3H-TdR incorporation at 72 hr) MCF-7 24 h, MCF-7 Human Breast Carcinoma, 72 hr assay
Protocol: as §2, §3

SF-268 [10] = assay: as above; format: cell-based, Human; settings: Homo sapiens, SF-268, read-out: IC50 in μM (3H-TdR incorporation at 72 hr) SF-268 24 h, SF-268 Human Central Nervous System Tumor; 24 h drug exposure, 72 hr assay
Protocol: as §2, §3

H-460 [11] = assay: as above; format: cell-based, Human; settings: Homo sapiens, NCI-H460, read-out: IC50 in μM (3H-TdR incorporation at 72 hr) H-460 24 h, H-460 Human Lung Carcinoma, 72 hr assay
Protocol: as §2, §3

CCRF-CEM [12] = assay: as above; format: cell-based; settings: read-out: IC50 in μM (3H-TdR incorporation at 72 hr) CCRF-CEM 24 h, CCRF-CEM T-cell Leukemia, 72 hr assay
Protocol: as §2, §3

H-460 [13] = assay: MTT assay at 72 hr (24 hr drug exposure, wash, 48 hr); format: cell-based
Protocol: as §4

[14] = Homo sapiens, CCRF-CEM, read-out: IC50 CCRF-CEM 24 h, MMT or WST-1 at 72 hr, 24 h exposure, single experiment
[15] = read-out: IC50 CCRF-CEM 24 h, MMT or WST-1 at 72 hr, 24 h exposure, single experiment
[16] = read-out: IC50 CEM/dCK- 24 h, MMT or WST-1 at 72 hr, 24 h exposure, single experiment
[17] = read-out: IC50 CEM/dCK- 24 h; MMT or WST-1 at 72 hr, 24 h exposure, single experiment
[18] = read-out: IC50 H-460 24 h, MTT at 72 hr, 24 h exposure, single experiment

Nc1ccn([C@@H]2CO[C@H](COC(=O)C34CC5CC(CC(C5)C3)C4)O2)c(=O)n1 [Compound 110, ADAMANTANE-1-CARBOXYLIC ACID 4-(4-AMINO-2-OXO- 2H-PYRIMIDIN-1-YL)- [1,3]DIOXOLAN-2- YLMETHYL ESTER]
pIC50 (CCRF-CEM [1]): 8.89 | pIC50 (CEM/dCK- [2]; Homo sapiens, CCRF-CEM, read-out: IC50 CEM/dCK- 24 h, 24 h drug exposure, wash, another 48 hr, deoxycytidine kinase-deficient CCRF-CEM): 5.37 | Factor* (Resistance Factor = Ratio of dCK- on Wild-type CCRF-CEM) (CEM/dCK- [2]; ratio of IC50 CEM/dCK- to CCRF-CEM, 24 h): 3307 | pIC50 (CCRF-CEM [3]; [14]): 8.47 | pIC50 (CCRF-CEM [3]; [15]): 8.60 and 8.40 | pIC50 (SF-268 [4]): 8.31 | pIC50 (H-460 [5]): 9.00 | pIC50 (MCF-7 [6]): 8.00

CC(C)(C)c1cc(C(=O)OC[C@H]2OC[C@@H](n3ccc(N)nc3=O)O2)cc(C(C)(C)C)c1 [Compound 186, 3,5-DI-TERT-BUTYL- BENZOIC ACID 4-(4- AMINO-2-OXO-2H- PYRIMIDIN-1-YL)- [1,3]DIOXOLAN-2- YLMETHYL ESTER]
pIC50 (CEM/dCK- [7]; [16]): 4.59 | pIC50 (CEM/dCK- [7]; [17]): 4.85 | IC50 (CEM/dCK- [8]): > 100 µM

O=C(CCCCCCCc1ccccc1)Nc1ccn([C@@H]2CO[C@H](COC(=O)CCCCCCCc3ccccc3)O2)c(=O)n1 [Compound 196, 8-PHENYL-OCTANOIC ACID 4-[2-OXO-4-(8-PHENYL- OCTANOYLAMINO)-2H- PYRIMIDIN-1-YL]- [1,3]DIOXOLAN-2-YL METHYL ESTER]
pIC50 (CCRF-CEM [3]; [14]): 8.00 | IC50 (MCF-7 [9]): < 0.0001 µM | IC50 (SF-268 [10]): < 0.0001 µM | IC50 (H-460 [11]): < 0.0001 µM

CC(=O)Oc1ccc(COC(=O)Nc2ccn([C@@H]3CO[C@H](COC(=O)OCc4ccc(OC(C)=O)cc4)O3)c(=O)n2)cc1 [Compound 202, Acetic acid 4-(1-{2-[4-(Acetyloxy)benzyloxycarbonyloxymethyl]-[1,3]dioxolan-4-yl}2-oxo-1,2-dihydropyrimidin-4-ylcarbamoyloxymethyl)-phenyl Ester]
pIC50 (CCRF-CEM [3]; [14]): 7.85 | Resistance Factor* (CEM/dCK- [7]; CEM/dCK- versus CCRF-CEM, single experiment): >7 | pIC50 (CEM/dCK- [7]; [16]): 7.30 | pIC50 (CEM/dCK- [7]; [17]): < 7.00 | IC50 (CCRF-CEM [12]; Homo sapiens, CCRF-CEM): < 0.1 nM | Factor* (Resistance Factor = Ratio of dCK- on Wild-type CCRF-CEM) (CEM/dCK- [8]): >1000 | IC50 (MCF-7 [9]): < 0.0001 µM

CCCCCCCCCCCC(=O)Nc1ccn([C@@H]2CO[C@H](CO)O2)c(=O)n1 [Compound 208, DODECANOIC ACID [1-(2- HYDROXYMETHYL- [1,3]DIOXOLAN-4-YL)-2- OXO-1,2-DIHYDRO- PYRIMIDIN-4-YL]-AMIDE]
pIC50 (H-460 [13]; Homo sapiens, NCI-H460, read-out: IC50 H-460 24 h, MTT at 72 hr, 24 h exposure, single experiment): 6.96 | pIC50 (H-460 [13]; [18]): 6.70 | IC50 (CCRF-CEM [12]; Homo sapiens, CCRF-CEM): < 0.1 nM | IC50 (CCRF-CEM [12]): 0.052 nM

CCCCCCCC/C=C\CCCCCCCC(=O)Nc1ccn([C@@H]2CO[C@H](CO)O2)c(=O)n1 [Compound 219, OCTADEC-9-ENOIC ACID [1-(2-HYDROXYMETHYL- [1,3]DIOXOLAN-4-YL)-2- OXO-1,2-DIHYDRO- PYRIMIDIN-4-YL]-AMIDE]
pIC50 (CCRF-CEM [3]; [14]): 7.74 | pIC50 (CCRF-CEM [3]; [15]): 8.00 | IC50 (CEM/dCK- [8]): 2.1 µM | IC50 (MCF-7 [9]): ≤ 0.0001 µM | IC50 (SF-268 [10]): 0.00012 µM | IC50 (H-460 [11]): ≤ 0.0001 µM

CCCCC[C@H]1CC[C@H](C(=O)Nc2ccn([C@@H]3CO[C@H](CO)O3)c(=O)n2)CC1 [Compound 239, 4-PENTYL- CYCLOHEXANECARBOXYLIC ACID [1-(2- HYDROXYMETHYL- [1,3]DIOXOLAN-4-YL)-2- OXO-1,2-DIHYDRO- PYRIMIDIN-4-YL]-AMIDE]
pIC50 (H-460 [13]; [18]): 6.70 | pIC50 (CEM/dCK- [7]; [16]): 4.70 | pIC50 (CEM/dCK- [7]; [17]): 4.55 and 4.77 | IC50 (CCRF-CEM [12]; Homo sapiens, CCRF-CEM): 3 nM | IC50 (CEM/dCK- [8]): 20 µM | Factor* (Resistance Factor = Ratio of dCK- on Wild-type CCRF-CEM) (CEM/dCK- [8]): 6667 | IC50 (MCF-7 [9]): 0.00033 µM | IC50 (SF-268 [10]): 0.19 µM | IC50 (H-460 [11]): 0.0065 µM

Nc1ccn([C@@H]2CO[C@H](COC(=O)N(c3ccccc3)c3ccccc3)O2)c(=O)n1 [Compound 246, DIPHENYL-CARBAMIC ACID 4-(4-AMINO-2-OXO-2H- PYRIMIDIN-1-YL)- [1,3]DIOXOLAN-2-YL METHYL ESTER]
IC50 (CCRF-CEM [12]; Homo sapiens, CCRF-CEM): 25000 nM | IC50 (CEM/dCK- [8]): > 100 µM | Factor* (Resistance Factor = Ratio of dCK- on Wild-type CCRF-CEM) (CEM/dCK- [8]): >4 | IC50 (MCF-7 [9]): 1.4 µM | IC50 (SF-268 [10]): 28 µM | IC50 (H-460 [11]): 47 µM

CC(C)C(C(=O)Nc1ccn([C@@H]2CO[C@H](CO)O2)c(=O)n1)c1ccccc1 (stereo partly shown) [Compound 249, #N!-[1-(2- HYDROXYMETHYL- [1,3]DIOXOLAN-4-YL)-2- OXO-1,2-DIHYDRO- PYRIMIDIN-4-YL]-3- METHYL-2-PHENYL- BUTYRAMIDE]
IC50 (CCRF-CEM [12]; Homo sapiens, CCRF-CEM): 3900 nM | IC50 (CEM/dCK- [8]): > 100 µM | Factor* (Resistance Factor = Ratio of dCK- on Wild-type CCRF-CEM) (CEM/dCK- [8]): >25 | IC50 (MCF-7 [9]): 0.78 µM | IC50 (SF-268 [10]): 8.4 µM | IC50 (H-460 [11]): 8.6 µM

CCCCCc1ccc(OC(=O)Nc2ccn([C@@H]3CO[C@H](CO)O3)c(=O)n2)cc1 [Compound 250, [1-(2-HYDROXYMETHYL- [1,3]DIOXOLAN-4-YL)-2- OXO-1,2-DIHYDRO- […]-4-YL]- CARBAMIC ACID 4-PENTYL- PHENYL ESTER]
IC50 (CCRF-CEM [12]; Homo sapiens, CCRF-CEM): 63 nM | IC50 (CEM/dCK- [8]): 31 µM | Factor* (Resistance Factor = Ratio of dCK- on Wild-type CCRF-CEM) (CEM/dCK- [8]): 492 | IC50 (MCF-7 [9]): 0.16 µM | IC50 (SF-268 [10]): 0.17 µM | IC50 (H-460 [11]): 0.17 µM

CC(C)C[C@H](NC(=O)OCc1ccccc1)C(=O)Nc1ccn([C@@H]2CO[C@H](CO)O2)c(=O)n1 [Compound 254, {1-[1-(2-HYDROXYMETHYL- [1,3]DIOXOLAN-4-YL)-2- OXO-1,2-DIHYDRO- PYRIMIDIN-4-YL CARBAMOYL]-3-METHYL- BUTYL}-CARBAMIC ACID BENZYL ESTER]
IC50 (CCRF-CEM [12]; Homo sapiens, CCRF-CEM): 98 nM | IC50 (CEM/dCK- [8]): 31 µM | Factor* (Resistance Factor = Ratio of dCK- on Wild-type CCRF-CEM) (CEM/dCK- [8]): 316 | IC50 (MCF-7 [9]): 0.18 µM | IC50 (SF-268 [10]): 0.29 µM | IC50 (H-460 [11]): 0.17 µM

CC(C)(C)C(CCCCCCc1ccccc1)C(=O)OC[C@H]1OC[C@@H](n2ccc(N)nc2=O)O1 (stereo partly shown) [Compound 256, 2-tert-Butyl-8-phenyl-octanoic acid 4-(4-amino-2-oxo-2H-pyrimidin-1-yl)-[1,3]dioxolan-2-yl methyl ester]
IC50 (CCRF-CEM [12]; Homo sapiens, CCRF-CEM): 5300 nM | IC50 (CEM/dCK- [8]): 20 µM | Factor* (Resistance Factor = Ratio of dCK- on Wild-type CCRF-CEM) (CEM/dCK- [8]): 4 | IC50 (MCF-7 [9]): 5.1 µM | IC50 (SF-268 [10]): 14 µM | IC50 (H-460 [11]): 4.6 µM

CCC(CCCCCCc1ccccc1)C(=O)OC[C@H]1OC[C@@H](n2ccc(N)nc2=O)O1 (stereo partly shown) [Compound 266, 2-ETHYL-8-PHENYL- OCTANOIC ACID 4-(4- AMINO-2-OXO-2H- PYRIMIDIN-1-YL)- [1,3]DIOXOLAN-2- YLMETHYL ESTER]
pIC50 (CEM/dCK- [7]; [16]): 4.68 | pIC50 (CEM/dCK- [7]; [17]): 4.59
